# From patent US20200003760A1, “IN-VITRO METHODS FOR CLASSIFYING DRUGS ACCORDING TO THEIR POTENTIAL TO CAUSE LIVER CELL INJURY” (Board of Trustees of Michigan State University, priority 2018, published 2020)
# “Also recorded” adds a separate entry of the source. Like-named read-outs stand apart in the source and are kept apart here.
# Columns and labels:
# HepG2 cells = experiment: Drug/cytokine-induced cytotoxicity (% LDH release) concentration-response in HepG2 cells; format: cell-based, human; design: key to Deltadiff: LDH release percentage points (drug/TNF Delta minus drug/VEH Delta); settings: for R10 / R10 IFN / R10 TNF / R10 TNF/IFN: 10 percent increase in LDH response above min, 0 when D10 = 0; for R10 IFN: with IFN; for R10 TNF: with TNF; for Deltadiff: Delta of drug/TNF curve minus Delta of drug/VEH curve (LDH percentage); for cytotoxic interaction of drug with TNF: TNF 10 ng/ml; for cytotoxicity of drug on its own (LDH release): absence of cytokines; for TNF change: D10TNF − D10VEH
# Experimental: Cells were passed or used for experiments when they reached approximately 80% confluence. Cells were used at passage 6-16.
# HepG2 cells were plated at a density of 4×10^4 cells per well in black-walled, 96-well, tissue culture plates and were allowed to attach overnight before being treated with compounds. Drugs were reconstituted in vehicles consisting of sterile water or DMSO (concentration less than 0.5%). Cells were treated with various concentrations of the drug or its vehicle (control) alone or in combination with the cytokines TNF (10 ng/ml) and/or IFN (10 ng/ml) or their PBS vehicle (VEH). Cytotoxicity was evaluated as lactate dehydrogenase (LDH) activity released from the cells into culture medium using the Homogeneous Membrane Integrity Assay kit from Promega (Madison, Wis.).
# Concentration-response curves were generated for 24 drugs, 14 of which are associated with human IDILI and 10 of which are not. […] This was necessary because four-parameter logistic modeling used in the statistical analysis requires well defined, sigmoidal concentration-response curves. Cells were exposed to drug/cytokine combinations for 24 hours. For analysis of drug concentration-response data, concentrations of each drug were expressed as a fraction of its Cmax.
# Defining covariates: four-parameter logistic model. In the first phase, variables (potential covariates) for use in the classification analysis were defined from the analysis of drug concentration-response data. Initially, a one-way analysis of variance (ANOVA) was used as an omnibus test to determine if a particular treatment (e.g. drug alone or in combination with TNF and/or IFN) caused a significant change in LDH release relative to baseline (i.e., LDH release in the absence of drug, hereafter designated “min”). The criterion for significance for the ANOVA was set at α=0.01. A 1% level of significance was used to rule out more vigorously marginal relationships between concentration and response.
# where LDH(x) is the percentage of LDH released at a given concentration x; x=[drug]/Cmax; min=the % LDH release at 0 drug concentration (i.e., baseline); and max=the maximal LDH response (i.e., maximum % LDH release).
# where D10 is a categorical variable related to reaching a threshold LDH response above which a drug is classified as positively associated with IDILI. D10 is defined as 0 if Delta<10% LDH release and as 1 if Delta≥10% LDH release.
# The base covariate R10 represents the [drug]/Cmax value associated with an increase in 10 LDH percentage points above min for a particular treatment condition and was determined by the equation:
# R10 was considered to be 0 when the Delta<10% LDH (i.e. when D10=0).
# EC50 quotient, EC10 quotient and R10 quotient represent the ratio between the EC50, EC10 or R10 of the drug/cytokine concentration-response curve and the respective value for the drug/VEH concentration-response curve. In some instances, the value derived from this calculation is indeterminate (i.e. when the denominator=0). In order to incorporate the quotient values into the classification models described below, the categorical variable “Q” was used to eliminate the possibility of the quotient being indeterminate. Q is defined as 0 if Delta VEH and/or Delta cytokine is <10% LDH and 1 if both Delta VEH and Delta cytokine are ≥10% LDH. […] The same condition was applied for calculation of EC10 quotient and R10 quotient.
# Deltadiff represents the difference between the Delta of the drug/cytokine concentration-response curve and the Delta of the drug/VEH curve. In other words, Deltadiff=(Delta cytokine)−(Delta VEH). FIG. 1 graphically illustrates several of the covariates defined above. […] In addition to the covariates derived from the concentration-response curves, the maximal therapeutic plasma drug concentration (Cmax) in human patients was used in some models (Table 1).
# [1] = Logistic regression classification model: probability that a drug is associated with IDILI; design: species or system human; settings: for classification by the best-performing model: optimal cutoff; for Estimated probability: probability that drug is associated with IDILI, covariates Deltadiff, EC50 VEH, EC50 TNF, Delta VEH, Cmax, optimal cutoff 0.46
# Excerpt: Classification modeling using defined covariates. In the second phase of analysis, classification models were developed using logistic regression with covariates as independent variables in the analysis and known IDILI classification as the dependent variable. A model selection process was used to determine if a covariate or set of covariates is associated with IDILI liability. Covariates were first evaluated individually to determine how well a particular covariate classified drugs according to IDILI liability, and then covariates were evaluated in combination. Combinations of covariates were selected to maximize the ability of the model to distinguish between drugs associated or not with IDILI. Specifically, covariates that describe changes in efficacy (Delta, Deltadiff, etc.) were paired with covariates that describe changes in potency (EC50, EC10, R10, etc.) to find covariate combinations that led to models that most accurately discriminated between drugs that are and are not associated with IDILI. […] The logistic regression models follow the equation: […]
# where ŷi is the calculated (predicted) probability that drug i with a vector of covariates xi is associated with IDILI. The β coefficients (β0, the regression intercept; and βi, the regression slopes for model covariates, xi) were derived from the logistic regression models using 1) combinations of the covariates (xi) generated by concentration-response modeling for each of the 24 drugs evaluated in this study, and 2) the true IDILI classification for the dependent variable yi (i.e., 1 for IDILI+drugs and 0 for IDILI-drugs). […] This occurs when a covariate almost perfectly separates observations into the appropriate categories. […] When separation or quasi-complete separation occurs, use of the standard method (i.e., maximum likelihood estimation) provides biased, unreliable estimates of βi.
# Receiver operating characteristic (ROC) analysis. In the third phase of the statistical approach, the classification models, generated as logistic regression models using single covariates or combinations of covariates, were evaluated by ROC analysis to determine which model and corresponding sets of covariates led to the most accurate classification of drugs according to their potential to cause IDILI. An ROC curve was created for each model by graphing the true positive rate (sensitivity; i.e., proportion of drugs correctly classified as associated with IDILI) against the false positive rate (1-specificity; i.e., proportion of drugs incorrectly classified as associated with IDILI) at various probability cutoff thresholds (k). […] An area under the curve (AUC) and confidence interval was computed for each ROC curve (where each logistic regression model has one ROC curve). […] Corresponding to each ROC curve is an optimal threshold value (k*), the threshold yielding the highest point of accuracy on the curve (i.e., the point nearest the point […] on the curve). Thus, each ROC curve has a corresponding AUC and an optimal cutoff (k*) that corresponds to the highest point of accuracy on that ROC curve.
# [2] = maximal plasma concentration after pharmacologic dosing in human patients; cited from earlier work
# [3] = cited from earlier work; for True classification: IDILI in human patients; for IDILI liability: criteria of Xu et al. (2008); for pattern of liver injury in humans: human patients
# [4] = Homo sapiens, HepG2, categorical, Delta threshold 10 LDH percentage points, drug alone (VEH), read-out: D10
# [5] = Homo sapiens, HepG2, maximal LDH response, drug alone (VEH), 24 h, read-out: max
Compound,R10 (HepG2 cells; drug alone (VEH)),R10 IFN (HepG2 cells),R10 TNF (HepG2 cells),R10 TNF/IFN (HepG2 cells; with TNF and IFN),Deltadiff (HepG2 cells),"cytotoxic interaction of drug with TNF (HepG2 cells; HepG2, 24 h)","cytotoxicity of drug on its own (LDH release) (HepG2 cells; HepG2, 24 h)",Emax (HepG2 cells; [4]),Emax (HepG2 cells; [5]),TNF change (HepG2 cells; categorical),classification by the best-performing model [1],Estimated probability [1],Cmax [2],True classification [3],IDILI liability [3],pattern of liver injury in humans [3],further results
O=C(O)[C@H]1/C(=C/CO)O[C@@H]2CC(=O)N21 [Clavulanate],0 [drug]/Cmax,0 [drug]/Cmax,0 [drug]/Cmax,0 [drug]/Cmax,3.1,interacted only weakly with TNF,caused no cytotoxicity on their own,< 10%,17.4%,0,correctly as IDILI1,0.9509,12 µM,IDILI+,IDILI+,cholestatic pattern of injury,"cytotoxic interaction of drug with TNF (HepG2 cells; HepG2, 24 h, listed as clavulanate): synergized with TNF to cause cytotoxicity; also recorded: small but statistically significant"
COc1cccc2c1C(=O)c1c(O)c3c(c(O)c1C2=O)C[C@@](O)(C(=O)CO)C[C@@H]3O[C@H]1C[C@H](N)[C@H](O)[C@H](C)O1 [Doxorubicin],12.4 [drug]/Cmax,9.7 [drug]/Cmax,2.0 [drug]/Cmax,0.7 [drug]/Cmax,−15.2,TNF significantly enhanced the cytotoxicity,statistically significant increase in LDH release,,113%,0,,0.8839,1 µM,IDILI+,IDILI+,,"D10 (LDH rise of at least 10 points, yes/no) (HepG2 cells; Homo sapiens, HepG2, categorical, Delta threshold 10 LDH percentage points, drug alone (VEH)): > 10%; EC10 (HepG2 cells; value corresponding to 10% of Delta (max-min), drug alone (VEH), NA = no significant increase): 12.0 [drug]/Cmax; EC10 TNF (HepG2 cells; value corresponding to 10% of Delta, with TNF 10 ng/ml, NA = no significant increase): 1.7 [drug]/Cmax; EC10 TNF/IFN (HepG2 cells; value corresponding to 10% of Delta, with TNF and IFN, NA = no significant increase): 0.6 [drug]/Cmax"
Cc1onc(-c2c(F)cccc2Cl)c1C(=O)N[C@@H]1C(=O)N2[C@@H]1SC(C)(C)[C@@H]2C(=O)O [Flucloxacillin],0 [drug]/Cmax,0 [drug]/Cmax,0 [drug]/Cmax,0 [drug]/Cmax,0,no statistically significant increase in LDH,no statistically significant increase in LDH,< 10%,17.9%,0,incorrectly classified as not associated with IDILI,0.1545,72.6 µM,IDILI+,IDILI+,cholestatic rather than hepatocellular,"synergy with cytokines to kill HepG2 cells (HepG2 cells; HepG2, 24 h, TNF and/or IFN): did not synergize with cytokines to kill HepG2 cells; calculated probability for association with IDILI ([1]; best-performing classification model): 0.154"
